In ChEMBL document CHEMBL1201862, “PubChem BioAssay data set” (2004):
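Growth conditions: 96-well plates. Treatment: test compound, 48 hours, 5 concentrations. Analysis: linear interpolation between bracketing concentrations; unreached endpoints set to highest concentration. GI50 marks 50% less growth.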 Calls of active or inactive are those of the source. Rule as the data show it: active = GI50 up to about 1.1 µM and inactive = higher.

Columns and labels:
Experiment in all cases: DTP human tumour cell line panel, 48 h
DLD-1 = system: DLD-1
DMS-273 = system: DMS-273
LXFL 529 = system: LXFL 529
M19-MEL = system: M19-MEL
RXF 631 = system: RXF 631
SNB-78 = system: SNB-78
XF498 = system: XF498
BT-549 = system: BT-549
MDA-N = system: MDA-N

`COc1cccc(N2C(=O)c3c(c4[nH]c5ccccc5c4c4ccc(C(C)(C)C)cc34)C2=O)c1` was tested, and the GI50 (DLD-1) was > 100 µM (inactive), the GI50 (DMS-273) was > 100 µM (inactive) and the GI50 (LXFL 529) was > 100 µM (inactive). The GI50 (M19-MEL) was > 100 µM (inactive), the GI50 (RXF 631) was > 100 µM (inactive) and the GI50 (SNB-78) was > 100 µM (inactive). The GI50 (XF498) was > 100 µM (inactive).

In the case of `CCOC(=O)C1N(S(=O)(=O)c2ccc(C)cc2)CCC12C(c1ccc(OC)c(OC)c1)=Nc1ccccc12` (stereo not given), the GI50 (DLD-1) is reported as > 100 µM (inactive), the GI50 (DMS-273) is reported as > 100 µM (inactive) and the GI50 (LXFL 529) is reported as > 100 µM (inactive). The GI50 (M19-MEL) was > 100 µM (inactive), the GI50 (RXF 631) was > 100 µM (inactive) and the GI50 (SNB-78) was > 100 µM (inactive). The GI50 (XF498) was 30.1 µM (inactive).

With `OCC(O)C(OC1OC(CO)C(O)C(O)C1O)c1nn(-c2ccccc2)c2nc3cc(Cl)c(Cl)cc3cc12` (stereo not given) the GI50 (DLD-1) was > 100 µM (inactive), the GI50 (LXFL 529) was > 100 µM (inactive) and the GI50 (M19-MEL) was > 100 µM (inactive). For the same compound, the GI50 (RXF 631) was > 100 µM (inactive), the GI50 (SNB-78) was > 100 µM (inactive) and the GI50 (XF498) was > 100 µM (inactive).

For `Cc1cccc(C2=NC(C)(C)C(C)(C)N=C2c2cccc(C)n2)n1`, the GI50 (DLD-1) was 98.6 µM (inactive), the GI50 (DMS-273) was > 100 µM (inactive) and the GI50 (LXFL 529) was 70.5 µM (inactive). For the same compound, the GI50 (M19-MEL) was > 100 µM (inactive), the GI50 (RXF 631) was > 100 µM (inactive) and the GI50 (SNB-78) was > 100 µM (inactive). The GI50 (XF498) was > 100 µM (inactive).

For `COC(=O)C(=O)C(C(=O)C(=O)Nc1cc(Cl)c(Cl)cc1Cl)c1nc2ccc([N+](=O)[O-])cc2nc1O` (stereo not given), the GI50 (DMS-273) was > 100 µM (inactive), the GI50 (LXFL 529) was > 100 µM (inactive) and the GI50 (M19-MEL) was > 100 µM (inactive). For the same compound, the GI50 (RXF 631) was > 100 µM (inactive), the GI50 (SNB-78) was > 100 µM (inactive) and the GI50 (XF498) was 7.1 µM (inactive).

In the case of `NNC(=S)N/N=C/C(=C/Nc1ccccc1)[N+](=O)[O-]`, the GI50 (DLD-1) is reported as > 100 µM (inactive), the GI50 (LXFL 529) is reported as > 100 µM (inactive) and the GI50 (M19-MEL) is reported as > 100 µM (inactive). The GI50 (RXF 631) was > 100 µM (inactive) and the GI50 (XF498) was > 100 µM (inactive).

In the case of `CCCCCCCCCCCCCP(=O)(O)O`, the GI50 (DLD-1) is reported as > 100 µM (inactive), the GI50 (DMS-273) is reported as 50.9 µM (inactive) and the GI50 (LXFL 529) is reported as > 100 µM (inactive). For the same compound, the GI50 (M19-MEL) was > 100 µM (inactive), the GI50 (RXF 631) was > 100 µM (inactive) and the GI50 (SNB-78) was > 100 µM (inactive). The GI50 (XF498) was > 100 µM (inactive).

`COc1ccc2c(c1)CC1c3c(ccc(OC)c3O)CC2N1C` (stereo not given) was tested, and the GI50 (DLD-1) was 68.5 µM (inactive), the GI50 (DMS-273) was 22.4 µM (inactive) and the GI50 (LXFL 529) was 18.3 µM (inactive). The GI50 (M19-MEL) was 23 µM (inactive), the GI50 (RXF 631) was 22.6 µM (inactive) and the GI50 (SNB-78) was 24.3 µM (inactive). For the same compound, the GI50 (XF498) was 21.3 µM (inactive).

For `CN(C)CC1CC/C(=C\c2ccc3c(c2)OCO3)C1=O` (stereo not given), the GI50 (BT-549) was 11.2 µM (inactive), the GI50 (DLD-1) was 6.84 µM (inactive) and the GI50 (DMS-273) was 16.8 µM (inactive). For the same compound, the GI50 (LXFL 529) was 12.6 µM (inactive), the GI50 (M19-MEL) was 16.4 µM (inactive) and the GI50 (MDA-N) was 4.42 µM (inactive). The GI50 (RXF 631) was 12.7 µM (inactive), the GI50 (SNB-78) was 21.8 µM (inactive) and the GI50 (XF498) was 18.3 µM (inactive).

For `COC1=C(C(=O)OC(C)(C)C)C23CCCCC2(C(C(=O)OC(C)(C)C)=C(OC)C3C(=O)OC(C)(C)C)C1C(=O)OC(C)(C)C` (stereo not given), the GI50 (DLD-1) was 39.9 µM (inactive), the GI50 (DMS-273) was 10.1 µM (inactive) and the GI50 (LXFL 529) was 23.2 µM (inactive). The GI50 (M19-MEL) was 25 µM (inactive), the GI50 (RXF 631) was 8.15 µM (inactive) and the GI50 (SNB-78) was 72.9 µM (inactive). For the same compound, the GI50 (XF498) was 38.1 µM (inactive).

In the case of `Cc1ccc(-c2cc(-c3ccccc3)c(C#N)c(=O)n2C2OC(CO)C(O)C(O)C2O)cc1` (stereo not given), the GI50 (DLD-1) is reported as > 100 µM (inactive), the GI50 (DMS-273) is reported as > 100 µM (inactive) and the GI50 (LXFL 529) is reported as > 100 µM (inactive). The GI50 (M19-MEL) was > 100 µM (inactive), the GI50 (RXF 631) was > 100 µM (inactive) and the GI50 (SNB-78) was > 100 µM (inactive).

`CCOC(=O)C1(C)CCC(C(C(=O)O)C(=O)O)CC1=O` (stereo not given) was tested, and the GI50 (DLD-1) was > 100 µM (inactive), the GI50 (DMS-273) was > 100 µM (inactive) and the GI50 (LXFL 529) was > 100 µM (inactive). The GI50 (M19-MEL) was > 100 µM (inactive), the GI50 (RXF 631) was > 100 µM (inactive) and the GI50 (SNB-78) was > 100 µM (inactive).

In the case of `O=C1OCC2C1C1c3ccccc3C(O)c3ccccc3C21` (stereo not given), the GI50 (DLD-1) is reported as > 100 µM (inactive), the GI50 (LXFL 529) is reported as > 100 µM (inactive) and the GI50 (M19-MEL) is reported as > 100 µM (inactive). The GI50 (RXF 631) was > 100 µM (inactive), the GI50 (SNB-78) was > 100 µM (inactive) and the GI50 (XF498) was > 100 µM (inactive).

With `CNC(=S)NC(=S)N(C)C` the GI50 (DLD-1) was 5.48 µM (inactive), the GI50 (DMS-273) was 0.869 µM (active) and the GI50 (LXFL 529) was > 100 µM (inactive). For the same compound, the GI50 (RXF 631) was > 100 µM (inactive), the GI50 (SNB-78) was > 100 µM (inactive) and the GI50 (XF498) was > 100 µM (inactive).

For `N#CCCN(CCC#N)c1ccc(C(Sc2ccccc2)C(NC(=O)c2cc([N+](=O)[O-])ccc2Cl)C(=O)Sc2ccccc2)cc1` (stereo not given), the GI50 (DLD-1) was 2.52 µM (inactive), the GI50 (DMS-273) was 1.56 µM (inactive) and the GI50 (LXFL 529) was 3.69 µM (inactive). The GI50 (M19-MEL) was 5.36 µM (inactive), the GI50 (RXF 631) was 2.03 µM (inactive) and the GI50 (SNB-78) was 4.66 µM (inactive). The GI50 (XF498) was 8.67 µM (inactive).

In the case of `COC(=O)[C@]1(C)CCC[C@]2(C)C3CC4OOC3(C=C4C(C)(C)O)CCC21` (stereo not given in full), the GI50 (DLD-1) is reported as 28.4 µM (inactive), the GI50 (LXFL 529) is reported as 22.2 µM (inactive) and the GI50 (M19-MEL) is reported as 43 µM (inactive). For the same compound, the GI50 (RXF 631) was > 100 µM (inactive), the GI50 (SNB-78) was 30.8 µM (inactive) and the GI50 (XF498) was 20.6 µM (inactive).
